Patent US7663000B2, “Quinoneimines of malonic acid diamides” (A-Viral ASA, priority 2003, dated 2010)

Assay: Stability in aqueous solution, analysed by 1H NMR
Format: physicochemical
Excerpt: The product of Example 2 (PHBPQ, N-phenyl-2-hydroxy-2 butyl 1,3-propanal quinoneimine) was examined for stability in aqueous solution, followed by analysis by ^1H NMR spectroscopy.

stability compared with 4-OH-OPB (pH 7.4): more stable at pH 7.4 than 4-OH-OPB
re-conversion into 4-OH-OPB (when the solution was acidified): not re-converted into 4-OH-OPB
Substance: N-phenyl-2-hydroxy-2 butyl 1,3-propanal quinoneimine [PHBPQ]
